Measured values from ChEMBL document CHEMBL5214920, “Emerging impact of triazoles as anti-tubercular agent” (Eur J Med Chem, 2022).
≈ marks a conversion by molar mass, not a printed value.

Legend:
Type in all cases: functional
[1] = test system: Mycobacterium tuberculosis; test: Antitubercular activity against Mycobacterium tuberculosis H37Rv ATCC 27294 assessed as bacterial growth inhibition measured after 5 days by MABA method; details: H37Rv ATCC 27294, 120 h, time 5 day
[2] = test system: Mycobacterium tuberculosis; test: Antitubercular activity against Mycobacterium tuberculosis H37Rv ATCC 27294 assessed as bacterial growth inhibition measured after 7 days by MABA method; details: H37Rv ATCC 27294, 168 h, time 7 day
[3] = test system: Mycobacterium tuberculosis; test: Antitubercular activity against Mycobacterium tuberculosis H37Rv assessed as bacterial growth inhibition measured after 24 hrs by agar micro dilution method
[4] = test system: Mycobacterium tuberculosis; test: Antitubercular activity against Mycobacterium tuberculosis H37Rv assessed as bacterial growth inhibition measured after 5 days by MABA method; details: 120 h, time 5 day

Structure (SMILES): Cc1nc2ncccn2c1C(=O)NCc1cn(Cc2ccc(C#N)cc2)nn1
- MIC [1]: 1.56 µg/mL (≈ 4.19 µM)

Structure (SMILES): O=C(Cn1cc(COc2ccc([N+](=O)[O-])cc2)nn1)Nc1ccc(Cl)cc1
- MIC [2]: > 25 µg/mL

Structure (SMILES): COc1ccccc1C1NN=C2C1Sc1nc(-c3ccc(C)cc3)nn12 (centres undefined)
- MIC [3]: 3.12 µg/mL (≈ 8.6 µM)

Structure (SMILES): Cc1nc2ccccn2c1C(=O)NCc1cn(Cc2ccc(C(F)(F)F)cc2)nn1
- MIC [1]: 1.56 µg/mL (≈ 3.76 µM)

Structure (SMILES): COc1ccc(-n2ncn(Cc3cc4ccccc4nc3Cl)c2=O)cc1
- MIC [4]: 0.078 µM

Structure (SMILES): C[C@H](CCC(=O)COc1cn(C[C@H]2O[C@@H](n3cnc4c(N)ncnc43)[C@@H]3OC(C)(C)O[C@@H]32)nn1)C12CCCC1C1CCC3C[C@H](O)CC[C@]3(C)C1CC2 (some centres undefined)
- MIC [1]: 4.09 µg/mL (≈ 5.58 µM)

Structure (SMILES): O=C(Cn1cc(COc2ccccc2)nn1)Nc1ccccc1Cl
- MIC [2]: > 25 µg/mL

Structure (SMILES): COc1ccc2nc(Cl)c(C(=O)NCc3cn(CC(=O)c4ccc(F)cc4)nn3)cc2c1
- MIC [1]: 1.6 µg/mL (≈ 3.53 µM)

Structure (SMILES): Cc1ccccc1NC(=O)Cn1cc(COc2ccc([N+](=O)[O-])cc2)nn1
- MIC [2]: > 25 µg/mL

Structure (SMILES): Cc1ccc(-c2nc3n(n2)C2=NOC(c4cccc([N+](=O)[O-])c4)C2S3)cc1 (centres undefined)
- MIC [3]: 3.12 µg/mL (≈ 8.24 µM)

Structure (SMILES): O=C(NCc1cn(Cc2ccc(C(F)(F)F)cc2)nn1)c1cn2cccnc2n1
- MIC [1]: 1.56 µg/mL (≈ 3.89 µM)

Structure (SMILES): Cc1ccc(-c2nc3n(n2)C2=NNC(c4ccc([N+](=O)[O-])cc4)C2S3)cc1 (centres undefined)
- MIC [3]: 3.12 µg/mL (≈ 8.26 µM)

Structure (SMILES): Cc1ccc(-c2nc3n(n2)C2=NOC(c4ccccc4)C2S3)cc1 (centres undefined)
- MIC [3]: 3.12 µg/mL (≈ 9.34 µM)

Structure (SMILES): Cc1ccc(NC(=O)Cn2cc(COc3ccc([N+](=O)[O-])cc3)nn2)cc1
- MIC [2]: > 25 µg/mL

Structure (SMILES): COc1ccc(OCc2cn(CC(=O)Nc3ccc(C)cc3)nn2)cc1
- MIC [2]: > 25 µg/mL

Structure (SMILES): Cc1ccc(-c2nc3n(n2)C2=NOC(c4ccc(N(C)C)cc4)C2S3)cc1 (centres undefined)
- MIC [3]: 3.12 µg/mL (≈ 8.28 µM)

Structure (SMILES): COc1ccc(OCc2cn(CC(=O)Nc3ccccc3)nn2)cc1
- MIC [2]: > 25 µg/mL

Structure (SMILES): Cc1nc2ccccn2c1C(=O)NCc1cn(Cc2ccccc2F)nn1
- MIC [1]: 1.56 µg/mL (≈ 4.28 µM)

Structure (SMILES): Cc1nc2ccccn2c1C(=O)NCc1cn(Cc2ccc([N+](=O)[O-])cc2)nn1
- MIC [1]: 1.56 µg/mL (≈ 3.99 µM)

Structure (SMILES): Cc1ccc(-c2nc3n(n2)C2=NOC(c4ccc([N+](=O)[O-])cc4)C2S3)cc1 (centres undefined)
- MIC [3]: 3.12 µg/mL (≈ 8.24 µM)

Structure (SMILES): CCc1nn(-c2ccccc2)c(=O)n1N(Cc1ccccc1)Cn1nnc2ccccc21
- MIC [4]: 3.12 µg/mL

Structure (SMILES): O=C(Cn1cc(COc2ccc([N+](=O)[O-])cc2)nn1)Nc1cccc(Cl)c1
- MIC [2]: > 25 µg/mL

Structure (SMILES): COc1ccc(-n2ncn(Cc3cc4cc(OC)ccc4nc3Cl)c2=O)cc1
- MIC [4]: 0.075 µM

Structure (SMILES): Cc1cccc(NC(=O)Cn2cc(COc3ccccc3)nn2)c1
- MIC [2]: > 25 µg/mL

Structure (SMILES): COc1ccc2nc(Cl)c(C(=O)NCc3cn(Cc4ccccc4)nn3)cc2c1
- MIC [1]: 1.6 µg/mL (≈ 3.92 µM)

Structure (SMILES): Cc1cccc(NC(=O)Cn2cc(COc3ccc([N+](=O)[O-])cc3)nn2)c1
- MIC [2]: > 25 µg/mL

Structure (SMILES): COc1ccc(OCc2cn(CC(=O)Nc3ccc(Cl)cc3)nn2)cc1
- MIC [2]: > 25 µg/mL

Structure (SMILES): Cc1ccc(Cn2cc(CNC(=O)c3cn4ccccc4n3)nn2)cc1
- MIC [1]: 1.56 µg/mL (≈ 4.5 µM)

Structure (SMILES): O=C(Cn1cc(COc2ccccc2)nn1)Nc1ccc(Cl)cc1
- MIC [2]: > 25 µg/mL

Structure (SMILES): Cc1nc2ncccn2c1C(=O)NCc1cn(Cc2ccc(C(F)(F)F)cc2)nn1
- MIC [1]: 1.56 µg/mL (≈ 3.76 µM)

Structure (SMILES): COc1ccc(Cn2cc(CNC(=O)c3cn4ccccc4n3)nn2)cc1
- MIC [1]: 1.56 µg/mL (≈ 4.3 µM)

Structure (SMILES): COc1ccc(OCc2cn(CC(=O)Nc3ccccc3Cl)nn2)cc1
- MIC [2]: > 25 µg/mL

Structure (SMILES): COc1ccc(OCc2cn(CC(=O)Nc3cccc(Cl)c3)nn2)cc1
- MIC [2]: > 25 µg/mL

Structure (SMILES): O=C(NCc1cn(Cc2ccc([N+](=O)[O-])cc2)nn1)c1cn2cccnc2n1
- MIC [1]: 1.56 µg/mL (≈ 4.12 µM)

Structure (SMILES): N/N=c1\ccc2ccccc2o1
- MIC [4]: 50 µg/mL

Structure (SMILES): COc1ccc(Cn2cc(CNC(=O)c3cc4cc(OC)ccc4nc3Cl)nn2)cc1
- MIC [1]: 1.6 µg/mL (≈ 3.65 µM)

Structure (SMILES): Cc1ccc(Cn2cc(CNC(=O)c3cn4cccnc4n3)nn2)cc1
- MIC [1]: 1.56 µg/mL (≈ 4.49 µM)

Structure (SMILES): Cc1ccc(-c2nc3n(n2)C2=NNC(c4ccc(Cl)cc4)C2S3)cc1 (centres undefined)
- MIC [3]: 3.12 µg/mL (≈ 8.49 µM)

Structure (SMILES): O=C(NCc1cn(Cc2ccc([N+](=O)[O-])cc2)nn1)c1cn2ccccc2n1
- MIC [1]: 1.56 µg/mL (≈ 4.13 µM)

Structure (SMILES): COc1ccc(OCc2cn(CC(=O)Nc3cccc(C)c3)nn2)cc1
- MIC [2]: > 25 µg/mL

Structure (SMILES): Cc1ccc(-c2nc3n(n2)C2=NNC(c4ccc(N(C)C)cc4)C2S3)cc1 (centres undefined)
- MIC [3]: 3.12 µg/mL (≈ 8.3 µM)

Structure (SMILES): COc1ccc(Cn2cc(CNC(=O)c3c(C)nc4ccccn34)nn2)cc1
- MIC [1]: 1.56 µg/mL (≈ 4.14 µM)

Structure (SMILES): Cc1nc2ncccn2c1C(=O)NCc1cn(Cc2ccccc2F)nn1
- MIC [1]: 1.56 µg/mL (≈ 4.27 µM)

Structure (SMILES): Cc1ccccc1NC(=O)Cn1cc(COc2ccccc2)nn1
- MIC [2]: > 25 µg/mL

Structure (SMILES): COc1ccc(C(=O)Cn2cc(CNC(=O)c3cc4cc(OC)ccc4nc3Cl)nn2)cc1
- MIC [1]: 1.6 µg/mL (≈ 3.43 µM)

Structure (SMILES): Cc1ccc(Cn2cc(CNC(=O)c3c(C)nc4ccccn34)nn2)cc1
- MIC [1]: 1.56 µg/mL (≈ 4.33 µM)

Structure (SMILES): Cc1ccc(Cn2cc(CNC(=O)c3c(C)nc4ncccn34)nn2)cc1
- MIC [1]: 1.56 µg/mL (≈ 4.32 µM)

Structure (SMILES): CCc1nn(-c2ccccc2)c(=O)n1N(Cc1ccc(O)cc1)CN(CC)CC
- MIC [4]: 6.25 µg/mL

Structure (SMILES): COc1ccc2nc(Cl)c(C(=O)NCc3cn(Cc4ccc(C#N)cc4)nn3)cc2c1
- MIC [1]: 1.6 µg/mL (≈ 3.7 µM)

Structure (SMILES): COc1ccc(C2NN=C3C2Sc2nc(-c4ccc(C)cc4)nn23)cc1 (centres undefined)
- MIC [3]: 3.12 µg/mL (≈ 8.6 µM)

Structure (SMILES): Cc1ccc(-c2nc3n(n2)C2=NOC(c4ccc(Cl)cc4)C2S3)cc1 (centres undefined)
- MIC [3]: 3.12 µg/mL (≈ 8.47 µM)

Structure (SMILES): O=C(c1ccccc1)C1C(c2cc3ccccc3nc2N2NNc3ccccc32)C2CCCN2C12C(=O)Nc1ccccc12 (centres undefined)
- MIC [2]: 1.13 µM

Structure (SMILES): Cc1ccc(-c2nc3n(n2)C2=NOC(c4ccc(Br)cc4)C2S3)cc1 (centres undefined)
- MIC [3]: 3.12 µg/mL (≈ 7.56 µM)

Structure (SMILES): COc1ccc(Cn2cc(CNC(=O)c3c(C)nc4ncccn34)nn2)cc1
- MIC [1]: 1.56 µg/mL (≈ 4.13 µM)

Structure (SMILES): COc1ccc(-n2ncn(Cc3cc4cc(C)ccc4nc3Cl)c2=O)cc1
- MIC [4]: 0.077 µM

Structure (SMILES): O=C(Cn1cc(COc2ccccc2)nn1)Nc1cccc(Cl)c1
- MIC [2]: > 25 µg/mL

Structure (SMILES): O=C(NCc1cn(Cc2ccc(C(F)(F)F)cc2)nn1)c1cn2ccccc2n1
- MIC [1]: 1.56 µg/mL (≈ 3.9 µM)

Structure (SMILES): Cc1ccc(-c2nc3n(n2)C2=NNC(c4ccc(Br)cc4)C2S3)cc1 (centres undefined)
- MIC [3]: 3.12 µg/mL (≈ 7.58 µM)

Structure (SMILES): O=C(Cn1cc(COc2ccc([N+](=O)[O-])cc2)nn1)Nc1ccccc1
- MIC [2]: > 25 µg/mL

Structure (SMILES): Cc1nc2ncccn2c1C(=O)NCc1cn(Cc2ccc([N+](=O)[O-])cc2)nn1
- MIC [1]: 1.56 µg/mL (≈ 3.98 µM)

Structure (SMILES): COc1ccc(Cn2cc(COCc3c(-c4ccc(OC)cc4)nc4ccccn34)nn2)cc1
- MIC [1]: 1.56 µg/mL (≈ 3.42 µM)

Structure (SMILES): O=C(NCc1cn(Cc2ccccc2F)nn1)c1cn2cccnc2n1
- MIC [1]: 1.56 µg/mL (≈ 4.44 µM)

Structure (SMILES): CC1=CC(C)Oc2cc(OCc3cn(Cc4cc(=O)oc5ccc(Cl)cc45)nn3)ccc21 (centres undefined)
- MIC [4]: 6.25 µg/mL

Structure (SMILES): COc1ccc(OCc2cn(CC(=O)Nc3ccccc3C)nn2)cc1
- MIC [2]: > 25 µg/mL

Structure (SMILES): COc1ccc(C2ON=C3C2Sc2nc(-c4ccc(C)cc4)nn23)cc1 (centres undefined)
- MIC [3]: 3.12 µg/mL (≈ 8.58 µM)

Structure (SMILES): O=C(Cn1cc(COc2ccc([N+](=O)[O-])cc2)nn1)Nc1ccccc1Cl
- MIC [2]: > 25 µg/mL

Structure (SMILES): Cc1ccc(-c2nc3n(n2)C2=NNC(c4cccc([N+](=O)[O-])c4)C2S3)cc1 (centres undefined)
- MIC [3]: 3.12 µg/mL (≈ 8.26 µM)

Structure (SMILES): COc1ccc(-c2nc3ccccn3c2COCc2cn(Cc3ccc(C)cc3)nn2)cc1
- MIC [1]: 1.56 µg/mL (≈ 3.55 µM)

Structure (SMILES): Cc1ccc2nc(O)c(Cn3cnn(-c4ccccc4)c3=O)cc2c1
- MIC90 [4]: 0.073 µM (≈ 0.0243 µg/mL)

Structure (SMILES): COc1ccc(Cn2cc(CNC(=O)c3cn4cccnc4n3)nn2)cc1
- MIC [1]: 1.56 µg/mL (≈ 4.29 µM)

Structure (SMILES): COc1ccccc1C1ON=C2C1Sc1nc(-c3ccc(C)cc3)nn12 (centres undefined)
- MIC [3]: 3.12 µg/mL (≈ 8.58 µM)

Structure (SMILES): O=C(NCc1cn(Cc2ccccc2F)nn1)c1cn2ccccc2n1
- MIC [1]: 1.56 µg/mL (≈ 4.45 µM)

Structure (SMILES): N#Cc1ccc(Cn2cc(CNC(=O)c3cn4cccnc4n3)nn2)cc1
- MIC [1]: 1.56 µg/mL (≈ 4.35 µM)

Structure (SMILES): CC1=CC(C)Oc2cc(OCc3cn(Cc4cc(=O)oc5ccc6ccccc6c45)nn3)ccc21 (centres undefined)
- MIC [4]: 6.25 µg/mL

Structure (SMILES): Cc1ccc(NC(=O)Cn2cc(COc3ccccc3)nn2)cc1
- MIC [2]: > 25 µg/mL

Structure (SMILES): COc1ccc(Cn2cc(COCc3c(-c4ccccc4F)nc4ccccn34)nn2)cc1
- MIC [1]: 1.56 µg/mL (≈ 3.52 µM)

Structure (SMILES): COc1ccc2nc(O)c(Cn3cnn(-c4ccccc4)c3=O)cc2c1
- MIC [4]: 0.074 µM

Structure (SMILES): NC(=O)c1cnccn1 [PYRAZINAMIDE]
- MIC [1]: 3.12 µg/mL (≈ 25.3 µM)
- MIC [4]: 3.12 µg/mL
